From publication PMC9105583, “Stereoselective Synthesis and Anticancer Activity of 2,6-Disubstituted trans-3-Methylidenetetrahydropyran-4-ones” (Materials, 2022)

Key:
[1] = system: HL-60 cells; assay: BrdU incorporation (proliferation), flow cytometry; format: cell-based, human; settings: 24 h, then BrdU 8 h
Protocol: (§1) Analysis of apoptosis, DNA damage and cell cycle
(§2) Apoptosis, DNA damage, proliferation and cell cycle kinetics were investigated using the Apoptosis, DNA Damage and Cell Proliferation Kit (BD Biosciences, San Jose, CA, USA) according to the manufacturer’s protocol. Briefly, HL-60 cells (2.0 × 10^5 cells/mL) were seeded in 6-well plates and left to grow for 24 h. Then, the cells were treated with 13d or 13g at IC50 and 2IC50 concentrations. After 24 h incubation, the cells were treated with BrdU solution for 8 h. Then, the cells were collected by centrifugation, fixed and permeabilized. To expose the incorporated BrdU, the cells were incubated with DNase (300 µg/mL in PBS) for 1 h at 37 °C. Afterwards, the cells were stained with fluorescent antibodies, including Anti-BrdU, Anti-Cleaved PARP (Asp214) and Anti-H2AX (pS139) for 20 min at room temperature. Total DNA for cell cycle analysis was stained using DAPI solution (1 µg/mL in staining buffer). Finally, the cells were analyzed by flow cytometry using CytoFLEX (Beckman Coulter, Inc., Brea, CA, USA) and the data analysis was performed with Kaluza Analysis Software v2 (Beckam Coulter, Inc., Brea, CA. USA).
To examine the influences of the investigated compounds on HL-60 cell proliferation, cells were exposed to a thymidine analog, bromodeoxyuridine (BrdU), that incorporates into newly synthesized DNA during proliferation.

[2] = system: HL-60 cells; assay: Cell cycle distribution, DAPI DNA staining and flow cytometry; format: cell-based, human; settings: 24 h
Protocol: as §1, §2
The cell cycle has a critical role in regulation of cell growth, proliferation and division of cells after DNA damage. Therefore, it often serves as a target in cancer therapy development. The cell cycle distribution was investigated using DAPI DNA staining and flow cytometry analysis.

[3] = system: HL-60 cells; assay: Annexin V / propidium iodide apoptosis assay, flow cytometry; format: cell-based, human; settings: for early apoptotic cells (Annexin V-positive and PI-negative) / late apoptotic cells (Annexin V-positive and PI-positive): compound at 2IC50, 24 h; for early apoptotic cells (Annexin V-positive and PI-negative): control 3.3 ± 0.36%; for late apoptotic cells (Annexin V-positive and PI-positive): control 5.5 ± 1.02%; for change in the number of apoptotic cells: compound at IC50, 24 h
Protocol: Apoptotic cells were detected using FITC Annexin V Apoptosis Detection Kit I (BD Biosciences, San Jose, CA, USA). HL-60 cells (2.0 × 10^5 cells/mL) seeded in 6-well plates and cultured overnight were treated with various concentrations of 13d or 13g for 24 h. Then, the cells were washed with PBS and resuspended in the binding buffer. After staining with FITC Annexin V and propidium iodide (15 min, room temperature) cells were analyzed by flow cytometry using CytoFlex and Kaluza Analysis Software v2 (Beckman Coulter Inc., Brea, CA, USA).
One of the typical features of apoptotic cell death is translocation of phosphatidylserine from the inside surface to the extracellular surface of the cell membrane, which can be detected with Annexin V [27]. Therefore, to examine the ability of the investigated compounds to induce apoptosis in HL-60 cells, we performed Annexin V and propidium iodide (PI) staining (Figure 5C and Figure 6C). In the control group, 90.3 ± 1.15% of HL-60 cells were healthy, 3.3 ± 0.36% were in early stage of apoptosis (Annexin V-positive and PI-negative) and 5.5 ± 1.02% were in late-stage apoptosis (Annaxin V-positive and PI-positive).

[4] = system: cleaved PARP in HL-60 cells; assay: Cleaved PARP (Asp214) detection, flow cytometry; format: cell-based, human; settings: compound at 2IC50 concentration, 24 h; control 0.7 ± 0.13%
Protocol: as §1, §2
Another hallmark of apoptosis is cleavage of poly(ADP-ribose) polymerase 1 (PARP1) into 24 kDa and 89 kDa fragments executed by caspases 3 and 7. […]

[5] = system: γH2AX in HL-60 cells; assay: γH2AX (H2AX pS139) DNA damage detection, flow cytometry; format: cell-based, human; settings: compound at 2IC50, 24 h; control 1.1 ± 0.17%
Protocol: as §1, §2
DNA damage can be the result of either single- or double-strand breaks (DSBs). DSB are considered the most dangerous, as it is assumed that in metazoan, just one DSB has the potential to trigger cell death. […]

[6] = target: T1, human topoisomerase IIα (Homo sapiens, UniProt P11388); assay: Human Topoisomerase II Decatenation Assay (kDNA); format: biochemical; settings: for inhibition of topoisomerase II activity: 0.5 mM and 1 mM concentrations, 30 min at 37 °C
T1 construct: purchased Inspiralis, Norwich, UK
Protocol: Topoisomerase IIα activity
Topoisomerase IIα activity inhibition was assessed using the Human Topoisomerase II Decatenation Assay (Inspiralis, Norwich, UK). Briefly, kDNA was incubated with ATP, assay buffer (50 mM Tris-HCl pH 7.5, 125 mM NaCl, 10 mM MgCl2, 5 mM DTT, 100 µg/mL albumin), human topoisomerase II enzyme and various concentrations of the investigated compounds for 30 min at 37 °C. The reaction was stopped by addition of STEB (40% (w/v) sucrose, 100 mM Tris-HCl pH 8, 1 mM EDTA, 0.5 mg/mL bromophenol blue) followed by DNA extraction with chloroform/iso-amyl alcohol mixture (24:1). The samples were loaded onto a 1% agarose gel and run in a TBE buffer at 85 V for 65 min. Gels were stained with ethidium bromide (1 µg/mL) for 15 min, destained in water and visualized with a transilluminator (ChemiDoc MP Imaging System, Bio-Rad, Hercules, CA, USA).
The ability of the analogs to inhibit topoisomerase II activity was investigated by measuring decatenation of kinetoplast DNA (kDNA) by human topoisomerase IIα. Topoisomerase II has the ability to decatenate interlinked dsDNA minicircles.

[7] = compound at 2IC50 concentration

T1 sequence (P11388 whole entry): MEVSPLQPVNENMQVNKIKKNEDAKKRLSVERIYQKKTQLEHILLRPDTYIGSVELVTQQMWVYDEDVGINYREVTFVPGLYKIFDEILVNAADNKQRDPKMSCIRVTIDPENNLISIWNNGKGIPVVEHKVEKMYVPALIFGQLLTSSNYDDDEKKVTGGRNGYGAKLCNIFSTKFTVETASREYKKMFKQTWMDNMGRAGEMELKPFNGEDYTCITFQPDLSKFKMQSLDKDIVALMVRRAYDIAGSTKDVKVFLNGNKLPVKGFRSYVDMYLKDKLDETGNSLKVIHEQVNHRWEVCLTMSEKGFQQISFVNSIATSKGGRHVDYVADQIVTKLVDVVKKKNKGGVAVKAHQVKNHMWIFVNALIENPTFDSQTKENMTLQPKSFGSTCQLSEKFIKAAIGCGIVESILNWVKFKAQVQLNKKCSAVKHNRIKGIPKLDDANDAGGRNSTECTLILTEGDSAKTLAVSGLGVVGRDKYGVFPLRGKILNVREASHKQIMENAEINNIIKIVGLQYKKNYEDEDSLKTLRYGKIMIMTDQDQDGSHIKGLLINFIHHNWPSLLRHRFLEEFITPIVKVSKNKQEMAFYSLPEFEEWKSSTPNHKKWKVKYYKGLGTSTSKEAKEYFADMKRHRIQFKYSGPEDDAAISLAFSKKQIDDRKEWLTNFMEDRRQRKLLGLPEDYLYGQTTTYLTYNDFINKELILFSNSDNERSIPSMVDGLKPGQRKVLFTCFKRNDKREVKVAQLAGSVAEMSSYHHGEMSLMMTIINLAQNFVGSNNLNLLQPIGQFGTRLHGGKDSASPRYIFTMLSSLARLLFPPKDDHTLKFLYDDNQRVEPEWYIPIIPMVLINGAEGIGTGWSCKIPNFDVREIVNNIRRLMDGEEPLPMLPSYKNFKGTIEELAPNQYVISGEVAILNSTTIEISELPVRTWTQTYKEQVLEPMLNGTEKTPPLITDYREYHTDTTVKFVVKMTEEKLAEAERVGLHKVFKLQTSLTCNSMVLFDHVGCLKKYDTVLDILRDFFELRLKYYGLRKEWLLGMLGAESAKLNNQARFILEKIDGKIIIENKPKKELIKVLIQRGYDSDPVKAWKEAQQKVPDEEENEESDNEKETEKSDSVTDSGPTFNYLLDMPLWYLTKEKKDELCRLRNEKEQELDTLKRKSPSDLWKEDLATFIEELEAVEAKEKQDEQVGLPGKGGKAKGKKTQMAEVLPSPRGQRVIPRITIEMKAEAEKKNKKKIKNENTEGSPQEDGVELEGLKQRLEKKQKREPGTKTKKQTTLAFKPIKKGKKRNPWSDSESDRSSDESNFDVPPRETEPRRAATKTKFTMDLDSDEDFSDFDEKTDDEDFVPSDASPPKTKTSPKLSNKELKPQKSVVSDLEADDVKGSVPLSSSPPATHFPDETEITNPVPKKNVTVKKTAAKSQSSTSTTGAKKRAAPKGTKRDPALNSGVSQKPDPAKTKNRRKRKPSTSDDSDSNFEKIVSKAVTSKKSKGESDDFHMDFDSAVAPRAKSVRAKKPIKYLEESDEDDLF

Question: What does the source list for `C=C1C(=O)C[C@H](c2ccccc2)O[C@H]1C(C)C` (relative stereo) [Analog 13g, Trans-2-isopropyl-3-methylidene-6-phenyltetrahydro-4H-pyran-4-one]?
Answer: BrdU-incorporating cell population [1, 7]: 31.9 ± 6.02%; BrdU-incorporating cell population ([1]; compound at IC50 concentration): 35.3 ± 1.23%; change of G2/M cell population ([2]; not statistically significant): slight increase; early apoptotic cells (Annexin V-positive and PI-negative) [3]: 8.7 ± 0.57%; late apoptotic cells (Annexin V-positive and PI-positive) [3]: 39.5 ± 1.16%; change in the number of apoptotic cells [3]: not effective; population of cells with cleaved PARP [4]: 13.5 ± 3.6%; cells with γH2AX generation (H2AX phosphorylation) [5]: 9.6 ± 2.94%; inhibition of topoisomerase II activity [6]: inhibited topoisomerase II activity; inhibitory activity towards topoisomerase IIα compared with 13d ([6]; 0.5 and 1 mM): stronger inhibitory activity

Question: Which BrdU-incorporating cell population [1, 7] does the source give for `C=C1C(=O)C[C@H](C(C)C)O[C@H]1C(C)C` (relative stereo) [Analog 13d, Trans-2,6-diisopropyl-3-methylidenetetrahydro-4H-pyran-4-one] here?
Answer: Its BrdU-incorporating cell population is 26.4 ± 6.9%.

Question: And the BrdU-incorporating cell population ([1]; compound at IC50 concentration)?
Answer: The BrdU-incorporating cell population was 31.5 ± 1.65%.

Question: What about the “population of cells in G0/G1 phase” value [2, 7] of the same molecule?
Answer: The value was “diminished”.

Question: What about the “cells in the G2/M phase” value ([2]; compound at 2IC50 concentration, control 14.9 ± 1.37%) of the same molecule?
Answer: Its value is 24.1 ± 1.40%.

Question: What about the “early apoptotic cells (Annexin V-positive and PI-negative)” value [3] of the same molecule?
Answer: Its value is 13.0 ± 2.64%.

Question: And the “late apoptotic cells (Annexin V-positive and PI-positive)” value [3]?
Answer: The value was 24.6 ± 2.34%.

Question: What about the “change in the number of apoptotic cells” value [3] of the same molecule?
Answer: The value was “did not induce a significant change”.

Question: And the “population of cells with cleaved PARP” value [4]?
Answer: Its value is 49.0 ± 1.61%.

Question: And the “cells with γH2AX generation (H2AX phosphorylation)” value [5]?
Answer: Its value is 38.4 ± 5.89%.

Question: What about the “inhibition of topoisomerase II activity” value [6] of the same molecule?
Answer: The value was “inhibited topoisomerase II activity”.
